Values quoted from earlier work as cited in patent US6288110A, “Pharmaceutical compositions comprising disulfiram” (Yeda Research and Development Co Ltd., priority 1998, dated 2001).

Settings: non-enzymatic degradation; cited from earlier work

CCN(CC)C(=S)S [DDC, diethyldithiocarbamate]
further metabolism of DDC: non-enzymatic degradation to diethylamine (DEA)
